According to US20140206702A1, “IMIDAZOPYRIDINE COMPOUNDS, COMPOSITIONS AND METHODS OF USE” (Genentech, Inc., priority 2012, published 2014):

Biological target: T1, TYK2 kinase domain (Homo sapiens, UniProt P29597)
T1 construct: The activity of the isolated JAK1, JAK2 or TYK2 kinase domain was measured
T1 sequence (P29597 897-1176 limits assumed): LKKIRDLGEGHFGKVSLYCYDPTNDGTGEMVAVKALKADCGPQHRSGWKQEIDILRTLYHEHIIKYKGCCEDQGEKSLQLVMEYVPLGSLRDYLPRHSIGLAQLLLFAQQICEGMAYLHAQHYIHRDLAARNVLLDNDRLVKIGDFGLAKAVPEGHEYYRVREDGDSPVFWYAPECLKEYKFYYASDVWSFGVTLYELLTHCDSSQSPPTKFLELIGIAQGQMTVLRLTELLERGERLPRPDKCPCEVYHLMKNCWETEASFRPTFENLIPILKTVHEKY
Experiment: JAK1, JAK2 and TYK2 Inhibition Assay Protocol (Caliper LabChip, isolated kinase domain)
Assay type: biochemical
Conditions: 1 nM purified TYK2 enzyme, 25 uM ATP, Morrison tight binding model; read-out: Ki values for TYK2 inhibition
Description: The activity of the isolated JAK1, JAK2 or TYK2 kinase domain was measured by monitoring phosphorylation of a peptide derived from JAK3 (Val-Ala-Leu-Val-Asp-Gly-Tyr-Phe-Arg-Leu-Thr-Thr) fluorescently labeled on the N-terminus with 5-carboxyfluorescein using the Caliper LabChip technology (Caliper Life Sciences, Hopkinton, Mass.). To determine the inhibition constants (Ki) of Examples 1-11, compounds were diluted serially in DMSO and added to 50 uL kinase reactions containing 1.5 nM JAK1, 0.2 nM purified JAK2 or 1 nM purified TYK2 enzyme, 100 mM Hepes pH7.2, 0.015% Brij-35, 1.5 uM peptide substrate, 25 uM ATP, 10 mM MgCl2, 4 mM DTT at a final DMSO concentration of 2%. Reactions were incubated at 22° C. in 384-well polypropylene microtiter plates for 30 minutes and then stopped by addition of 25 uL of an EDTA containing solution (100 mM Hepes pH 7.2, 0.015% Brij-35, 150 mM EDTA), resulting in a final EDTA concentration of 50 mM. After termination of the kinase reaction, the proportion of phosphorylated product was determined as a fraction of total peptide substrate using the Caliper LabChip 3000 according to the manufacturer's specifications. Ki values were then determined using the Morrison tight binding model. Morrison, J. F., Biochim. Biophys. Acta. 185:269-296 (1969); William, J. W. and Morrison, J. F., Meth. Enzymol., 63:437-467 (1979).

| Ki [nM] | SMILES |
| --- | --- |
| 0.4 | N#Cc1cccc(F)c1-c1nc2ccnc(Nc3cc(N)ncn3)c2[nH]1 [Example 1, 2-(4-(6-aminopyrimidin-4-ylamino)-3H-imidazo[4,5-c]pyridin-2-yl)-3-fluorobenzonitrile] |
| 6 | N#Cc1cccc(F)c1-c1nc2ccnc(NC(=O)C3CC3)c2[nH]1 [Example 11, N-(2-(2-cyano-6-fluorophenyl)-3H-imidazo[4,5-c]pyridin-4-yl)cyclopropanecarboxamide] |
| 2.7 | Cc1cc(Nc2nccc3nc(-c4c(C#N)cccc4C#N)[nH]c23)ncn1 [Example 7, 2-(4-(6-methylpyrimidin-4-ylamino)-3H-imidazo[4,5-c]pyridine-2-yl)isophthalonitrile] |

Same assay, conditions: Table 1; 1 nM purified TYK2 enzyme, 25 uM ATP, Morrison tight binding model; read-out: TYK2 Ki

| Ki [nM] | SMILES |
| --- | --- |
| 0.4 | N#Cc1cccc(Cl)c1-c1nc2ccnc(Nc3cc(N)ncn3)c2[nH]1 [Example 2, 2-(4-(6-aminopyrimidin-4-ylamino)-3H-imidazo[4,5-c]pyridine-2-yl)-3-chlorobenzonitrile] |
| 0.7 | CNc1cc(Nc2nccc3nc(-c4c(F)cccc4C#N)[nH]c23)ncn1 [Example 8, 3-fluoro-2-(4-(6-(methylamino)pyrimidin-4-ylamino)-3H-imidazo[4,5-c]pyridin-2-yl)benzonitrile] |
| 0.8 | N#Cc1cccc(Cl)c1-c1nc2ccnc(Nc3cc(CO)ncn3)c2[nH]1 [Example 5, 3-chloro-2-(4-(6-(hydroxymethyl)pyrimidin-4-ylamino)-3H-imidazo[4,5-c]pyridin-2-yl)benzonitrile] |
| 0.8 | Cc1cc(Nc2nccc3nc(-c4c(Cl)cccc4C#N)[nH]c23)ncn1 [Example 3, 3-chloro-2-(4-(6-methylpyrimidin-4-ylamino)-3H-imidazo[4,5-c]pyridine-2-yl)benzonitrile] |
| 1 | Cc1cc(Nc2nccc3nc(-c4c(F)cccc4C#N)[nH]c23)ncn1 [Example 4, 3-fluoro-2-(4-(6-methylpyrimidin-4-ylamino)-3H-imidazo[4,5-c]pyridine-2-yl)benzonitrile] |
| 0.6 | CNc1cc(Nc2nccc3nc(-c4c(Cl)cccc4C#N)[nH]c23)ncn1 [Example 6, 3-chloro-2-(4-(6-(methylamino)pyrimidin-4-ylamino)-3H-imidazo[4,5-c]pyridin-2-yl)benzonitrile] |
| 2 | N#Cc1cccc(F)c1-c1nc2ccnc(Nc3cc(CO)ncn3)c2[nH]1 [Example 9, 3-fluoro-2-(4-(6-(hydroxymethyl)pyrimidin-4-ylamino)-3H-imidazo[4,5-c]pyridin-2-yl)benzonitrile] |
| 1.3 | N#Cc1cccc(Cl)c1-c1nc2ccnc(NC(=O)C3CC3)c2[nH]1 [Example 10, N-(2-(2-chloro-6-cyanophenyl)-3H-imidazo[4,5-c]pyridin-4-yl)cyclopropanecarboxamide] |
